According to PMC6562672, “Dose-Dependent Sorafenib-Induced Immunosuppression Is Associated with Aberrant NFAT Activation and Expression of PD-1 in T Cells” (Cancers, 2019):
Like-named read-outs stand apart in the source and are kept apart here.

How the values were obtained:
NFAT1 = NFAT1 nuclear translocation in T cells by imaging flow cytometry (similarity score); type: cell-based, human; settings: for nuclear translocation of NFAT1: non-stimulated CD8+ T cells
Procedure: PBMCs were allowed to ‘recover’ in AIM-V medium (Thermo Fisher Scientific) at 37 °C, 5% CO2 in a humidified atmosphere overnight. 2 × 10^6 cells were treated with 0–10 µM sorafenib for the durations specified in the results section. If the experimental conditions required T cell stimulation, samples were co-treated (stimulated) with 1 µg/mL anti-CD3 and 1 µg/mL anti-CD28 for 2 h. Following treatment, PBMCs were placed on ice to stop drug action and immunophenotyped for CD4, CD8, CD25, and PD-1 (CD279). NFAT1 was detected by indirect labeling. Antibodies were diluted in permeabilization wash buffer (PWB) consisting of 0.1% Triton-X-100 in FCM Buffer (1× phosphate buffered saline (PBS) + 0.5%BSA). The primary Rabbit polyclonal NFAT1 antibody was diluted 1:50 in PWB. Following this, 1:200 dilution of secondary AF647 conjugated F(ab’)2 fragment donkey anti rabbit IgG antibody (Jackson ImmunoResearch Laboratories Inc., West Grove, PA, USA) was added. Just prior to data acquisition on the ImageStream, DAPI was added to all samples (0.5 µg/mL final concentration), to stain the nucleus.
Imaging flow cytometry acquisition, compensation, and analysis was performed on an imaging flow cytometer (ImagestreamX Mk-II; Amnis, part of MilliporeSigma, Seattle, WA, USA) as described previously. Following compensation for spectral overlap, image analysis was performed with IDEAS® software (Amnis, Seattle, WA, USA). To assess nuclear NFAT1 translocation, the corresponding nuclear image and NFAT1 image of each cell was compared and a Similarity Score (SS) was assigned for individual cells using published methods (Figure S3).

[1] = Treatment toxicity in WHV-infected woodchucks (general performance, CBC, biochemistry); type: in vivo, woodchuck (Marmota monax)
Procedure: General performance statuses of animals were evaluated such as moving activity, appetite, defecation, urination, and weight changes regularly. In addition, CBC and blood biochemistry were measured two times per month during the course of experiment by ProCyte Hematology and Catalyst Chemistry Analyzers (IDEXX, Hoofddorp, The Netherlands).

HCC [2] = experiment: Efficacy against HCC in WHV-infected woodchucks (ultrasound); type: in vivo, woodchuck (Marmota monax); settings: for median time from first detection of tumor to 2 cm HCC: placebo 55 days; for median time to tumor development: long-term, placebo 295 days, p = 0.35
From the text: Male and female eastern woodchucks (Marmota monax) from two different institutes were used. WHV-infected woodchucks from Cornell University (15) were used for a long-term efficacy study, and six woodchucks in a short-term efficacy study were bred at Roswell Park Comprehensive Cancer Institute Center. Woodchucks were infected at 3–5 days of age with dilute serum from standard infectious pools derived from WHV carriers. Pups were inoculated with diluted, pooled serum from WHV^+ animals. The inoculum was prepared from pooled serum of WHV^+ animals that is diluted aseptically 1:10 in PBS. In a biological safety cabinet, each pup is manually restrained and 100 microliters of inoculum is injected subcutaneously in the intrascapular region. Chronic infection was verified at approximately 3, 6, and 9 months of age by WHV viral titer status. Once the pups are confirmed WHV positive, they were monitored by ultrasound (Philips HDI 5000, Amsterdam, The Netherlands) to confirm the presence of HCC.
In total, 21 animals bearing one or more liver tumors were included in this study for 2 separate experiments. While receiving sorafenib or placebo, animals were monitored with ultrasound every 2 weeks for tumor development greater than 5 mm in diameter. […] Tumor volume was calculated using this formula: volume = shortest axis^2 × longest axis × 0.52.
All WHV carrier woodchucks were randomly divided into three groups such as placebo, low dose (2.5 mg/kg/day), and high dose (5.0 mg/kg/day) groups (n = 5 animals/group) in a long-term efficacy study based on clinical and preclinical studies. Also, a compartmental pharmacokinetic (PK) model was used to select the two lowest doses that can achieve exposure sufficient to inhibit pharmacodynamic targets. Experimental woodchucks were treated with placebo, 2.5 mg/kg, or 5.0 mg/kg sorafenib once daily with a 5 days on and 2 days off schedule. Animals were dosed orally until tumor development. Another experiment was performed with the low (2.5 mg/kg/day) and high (5.0 mg/kg/day) dose groups (n = 3 animals/group) to see the efficacy of short-term (90 days treatment) usage of sorafenib. The primary endpoint of the in vivo study was disease free survival (DFS), and DFS was measured from the date of randomization until the date of any liver tumor detection. The secondary endpoint was tumor size over 2 cm, which was measured from the date of first tumor detection. All experimental protocols were approved by IACUC.

HCC [3] = experiment: Tumor histology: H&E necrosis and CD3 immunohistochemistry; type: in vivo, woodchuck (Marmota monax)
Procedure: Tumor specimens were diagnosed as HCC based on the established classification of neoplastic liver lesions. After standard processing and embedding in paraffin, 4 μm sections were prepared, deparaffinized, stained with hematoxylin-eosin (H&E), studied with a Zeiss Axio Imager A1 microscope (Carl Zeiss, Oberkochen, Germany) by a pathologist blinded to the treatment arm. Morphometric study of areas of necrosis was compared to the size of the tumor sections by counting view fields at medium objective magnification. IHC staining with mouse anti-rat CD3 (BD Biosciences, San Jose, CA, USA) was performed on […] paraffin sections of posttreatment tumor tissues obtained after tumor reached over 2 cm. Images of at least 7 randomly selected fields (unit area of each field, 0.34 mm^2) were captured by observers blinded to sample identity. Identical exposure times and image settings were used within each experiment. Images were analyzed with ImageJ software (http://rsb.info.nih.gov/ij, Bethesda, MD, USA).

[4] = cited from earlier work

Structure (SMILES): CNC(=O)c1cc(Oc2ccc(NC(=O)Nc3ccc(Cl)c(C(F)(F)F)c3)cc2)ccn1 [sorafenib, Sorafenib]
- nuclear translocation of NFAT1 (NFAT1; 10 µM, 1 h exposure): no significant increase
- nuclear translocation of NFAT1 (NFAT1; 10 µM, 4 h exposure): most significant increase
- effect on PMA/ionomycin-induced T cell stimulation (NFAT1) (NFAT1; 10 µM, PMA/ionomycin stimulation, lesser extent than CD3/CD28): inhibitory effect
- baseline activity of NFAT1 in T cells (NFAT1; 10 µM, absence of CD3/CD28 stimulation): significantly increased
- anti-CD3/CD28-induced NFAT1 activity (NFAT1; 10 µM, presence of CD3/CD28 stimulation): significantly inhibited
- NFAT1 activation in PD-1+ cells (NFAT1; high dose (10 µM), PD-1+ T cells): increased
- NFAT1 activation (NFAT1; lower doses of sorafenib, absence of exogenous stimulatory factors): not observed
- general performance change (moving activity, appetite, defecation, urination, weight changes) ([1]; 2.5 and 5.0 mg/kg/day oral, all treatment groups): not detected
- CBC and biochemistry analyses among the three groups ([1]; end of experiment, placebo vs 2.5 vs 5.0 mg/kg/day): no statistical difference
- median time from first detection of tumor to 2 cm HCC (HCC [2]; 2.5 mg/kg): 111 days
- median time from first detection of tumor to 2 cm HCC (HCC [2]; 5 mg/kg): 42 days
- median time to tumor development (HCC [2]; high dose 5.0 mg/kg/day): 351 days
- tumor growth delay (HCC [2]; high dose vs placebo, p = 0.5): failed to show any tumor growth delay effect
- animals that developed HCC (HCC [2]; long-term treatment, regardless of doses of sorafenib (15 woodchucks incl. placebo)): 100%
- tumor size when first detected by ultrasound (HCC [2]; low dose 2.5 mg/kg/day compared to placebo and high dose groups): smaller
- median time to tumor development (HCC [2]; low dose 2.5 mg/kg/day): 384 days
- tumor growth delay (HCC [2]; low dose vs placebo and high dose, p = 0.024): significant tumor growth delay
- tumor growth delay with low dose compared to high dose (HCC [2]; short-term usage, 90 days, n = 3/group): not achieved
- prevention of HCC and inhibition of WHV replication (HCC [2]; sorafenib treatments compared to placebo): did not prevent HCC or inhibit WHV replication
- necrotic change of HCC (H&E) (HCC [3]; high dose vs placebo, tumor over 2 cm, p = 0.02): significantly large necrotic change
- necrotic change of HCC (H&E) (HCC [3]; high vs low dose, p = 0.07): no statistical difference
- CD3+ cell infiltration in tumors (HCC [3]; low dose compared to high dose): More CD3+ cells
- CD3+ cell infiltration in tumors (HCC [3]; low dose vs placebo): no statistical difference
- plasma concentration of sorafenib in clinical trials ([4]; clinical trials): approximately 2 mg/L
- plasma concentration of sorafenib in clinical trials ([4]; conversion of 2 mg/L): 4 µM
- time to steady-state concentrations ([4]; patients, multiple oral dosing): 7 days
